Patent US20230135317A1, “COSMETIC FORMULATION FOR TOPICAL ADMINISTRATION COMPRISING NOVEL PEPTIDES THAT IMPROVE APPEARANCE AND REGENERATION OF SKIN” (ASC REGENITY LTD., priority 2020, published 2023)
No end group written: not given here.

B1: Juvista: TGF beta 3 drug (protein, UniProt P10600 301-412, looked up)
Transforming growth factor …: ALDTNYCFRNLEENCCVRPLYIDFRQDLGWKWVHEPKGYYANFCSGPCPYLRSADTTHSTVLGLYNTLNPEASASPCCVPQDLEPLTILYYVGRTPKVEQLSNMVVKSCKCS
modifications: Transforming growth factor beta-3
notes: TGF beta 3 drug

What was measured:
facial skin = assay: Nine-month long-term study 2 (stem cell homeostasis module peptides); assay type: in vivo, human; details: nine months; peptide tested with the other modules of TFC8-D; carrier in SEQ ID NO: 3 and 4 is PEG 35 kDa; sequence difference p-value <5%
[1] = clinical phase III (Gunter & MacHens, 2012); cited from earlier work

Row | Molecule | frequency of reported product performance decline (comparison) (facial skin) | clinical outcome [1]
1 | (Z1)-LNPSECPKTVLGAEYGKTLDASYSTAEAENHVRL (not fully specified (N-terminus); printed as (Z1)-LNPSECPKTVLGAEYGKTLDASYSTAEAENHVRL) [SEQ ID NO: 3, Z1 carrier at N-terminus; as tested a polyethyleneglycol with a molecular weight of 35 kDa] | lower for SEQ ID NO: 3 than for SEQ ID NO: 1 | –
2 | LNPSECPKTVLGASTSTLDASYSTAEAENHVRL (peptide that stimulates the Wnt beta-catenin signaling pathway) [SEQ ID NO: 2, peptide that stimulates Wnt/β-catenin signalling] | more strongly associated with a decline in product performance during the study period than the sequence of SEQ ID NO: 1 | –
3 | Z1-LNPSECPKTVLGASTSTLDASYSTAEAENHVRL (not fully specified (N-terminus); printed as Z1-LNPSECPKTVLGASTSTLDASYSTAEAENHVRL) [SEQ ID NO: 4, Z1 carrier at N-terminus; as tested a polyethyleneglycol with a molecular weight of 35 kDa] | lower for SEQ ID NO: 4 than for SEQ ID NO: 2 | –
4 | B1 | – | failure of a clinical phase III study
